Measured values reported in US20240083919A1, “Metal Complexes and Methods for the Same” (Colgate-Palmolive Company, priority 2020, published 2024).
Converted amounts (≈) assume the structure as drawn. Read-outs that look alike come from different tables or passages of the source.

Key:
[1] = system: Malassezia furfur; assay: MIC by doubling dilutions, visual turbidity, Malassezia furfur; type: cell-based; conditions: for MIC: about 35° C., 3 to 5 days, highest dilution that completely inhibited growth; for Final Dilution (Ratio): doubling dilutions from initial concentration 0.5% (CHA-Zn) or 1% (others)
Procedure: (§1) A suspension of Malassezia furfur was also prepared and exposed to each of the series of doubling dilutions. The samples were incubated at about 35° C. for 3 to 5 days or until growth was apparent in a growth control tube. Following incubation, each of the samples were visually examined for growth on the basis of turbidity.

[2] = system: Trichophyton rubrum; assay: MIC by doubling dilutions, visual turbidity, Trichophyton rubrum; type: cell-based; conditions: for MIC: about 35° C., 3 to 14 days, highest dilution that completely inhibited growth; for Final Dilution (Ratio): doubling dilutions from initial concentration 0.5% (CHA-Zn) or 1% (others)
Procedure: as §1, with “of Trichophyton rubrum” for “of Malassezia furfur”, “to 14” for “to 5”, “turbidity. […] It should be appreciated that a relatively lower MIC value indicates a relatively greater efficacy against the microbe.” for “turbidity.”

Compound | MIC ([1]; read-out: MIC) | Final Dilution (Ratio) [1] | MIC ([2]; read-out: MIC) | Final Dilution (Ratio) [2] | MIC [1] | MIC ([1]; listed as zinc nitrate) | MIC [2]
CCCCCCCC(=O)NO [CHA, caprylhydroxamic acid] | ~312 µg/mL (≈ 1960 µM) | 32 Ratio | ~156 µg/mL (≈ 980 µM) | 64 Ratio | – | – | –
Cc1cc(CC(C)CC(C)(C)C)n(O)c(=O)c1.NCCO (stereo not drawn) [Piroctone Olamine] | – | 64 Ratio | – | – | 156 ppm | – | –
O=[N+]([O-])[O-].O=[N+]([O-])[O-].[Zn+2] [Zinc Nitrate (Zn(NO3)2), zinc nitrate] | – | 2 Ratio | – | 4 Ratio | >5000 ppm | > 5000 ppm | ~2500 ppm
caprylhydroxamic-zinc complex [CHA-Zn complex] | – | 64 Ratio | – | 64 Ratio | – | – | –
zinc pyrithione [Zinc pyrithione (ZPT)] | – | – | – | 512 Ratio | – | – | 20 ppm
